We go through 17 molecules from US20020028836A1, “Potassium channel openers” (priority 2000, published 2002).

Experiment [1] deals with tissue strips obtained from Landrace pig bladders. In words: Functional potassium channel opening activity in isolated bladder strips (field-stimulated twitch). The settings on record: for Index: ED50 for P1075 divided by ED50 for the test agonist in a given tissue, averaged; for EC50 / Emax: Sus scrofa; for EC50: amount of agent necessary to cause 50% of the agent's maximal response, read-out: ED50 (the source's name); for Emax: maximal efficacy relative to P1075, field stimulation 0.05 Hz, 0.5 ms, 20 volts. The method in brief: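 Mucosa-free female Landrace pig bladder strips in Krebs Ringer bicarbonate (pH 7.4, 37° C., 0.004 mM propranolol), 1.0 g preload, field-stimulated at 0.05 Hz, 0.5 ms, 20 V for twitch. Cumulative concentration-response curves; maximal efficacy as % of P1075, ED50 fitted, potency index = P1075 ED50/test ED50 per tissue, averaged.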

Experiment [2] concerns primary cultured guinea-pig urinary bladder (GPB) cells. Put plainly: Membrane hyperpolarization (MHP) assay, DiBAC(4)3 / FLIPR. Type of experiment: cell-based. The settings on record: Cavia porcellus; for EC50: concentration that elicits 50% of the maximal response for the test sample; for Emax: maximal steady-state hyperpolarization, normalized to response with 10 μM P1075 (100%). The procedure: Compounds were evaluated for potassium channel opening activity using primary cultured guinea-pig urinary bladder (GPB) cells.
For the preparation of urinary bladder smooth muscle cells, urinary bladders were removed from male guinea-pigs (Hartley, Charles River, Wilmington, Mass.) weighing 300-400 g and placed in ice-cold Ca^2+-free Krebs solution (Composition, mM: KCl, 2.7; KH2PO4, 1.5; NaCl, 75; Na2HPO4, 9.6; Na2HPO4.7H2O, 8; MgSO4, 2; glucose, 5; HEPES, 10; pH 7.4). Cells were isolated by enzymatic dissociation as previously described with minor modifications (Klockner, U. and Isenberg, G., Pflugers Arch. (1985), 405, 329-339), hereby incorporated by reference. The bladder was cut into small sections and incubated in 5 mL of the Kreb's solution containing I mg/mL collagenase (Sigma, St. Louis, Mo.) and 0.2 mg/mL pronase (Calbiochem, La Jolla, Calif.) with continuous stirring in a cell incubator for 30 minutes. The mixture was then centrifuged at 1300×g for 5 minutes, and the pellet resuspended in Dulbecco's PBS (GIBCO, Gaithersburg, Md.) and recentrifuged to remove residual enzyme. The cell pellet was resuspended in 5 mL growth media (composition: Dulbecco's modified Eagle's medium supplemented with 10% fetal bovine serum, 100 units/mL penicillin, 100 units/mL streptomycin and […] amphotericin B) and further dissociated by pipetting the suspension through a flame-polished Pasteur pipette and passing it through a polypropylene mesh membrane (Spectrum, Houston, Tex.). The cell density was adjusted to 100,000 cells/mL by resuspension in growth media. Cells were plated in clear-bottomed black 96-well plates (Packard) for membrane potential studies at a density of 20,000 cells/well and maintained in a cell incubator with 90% air: 10% CO2 until confluent. Cells were confirmed to be of smooth muscle type by cytoskeletal staining using a monoclonal mouse anti human-α-smooth muscle actin (Biomeda, Foster City, Calif.).
Functional activity at potassium channels was measured by evaluating changes in membrane potential using the bis-oxonol dye DiBAC(4) (Molecular Probes) in a 96-well cell-based kinetic assay system, Fluorescent Imaging Plate Reader (FLIPR) (K. S. Schroeder et al., J. Biomed. Screen., v. 1 pp. 75-81 (1996)), hereby incorporated by reference. DiBAC(4)3 is an anionic potentiometric probe which partitions between cells and extracellular solution in a membrane potential-dependent manner. With increasing membrane potential (for example, K^+ depolarization), the probe further partitions into the cell; this is measured as an increase in fluorescence due to dye interaction with intracellular lipids and proteins. Conversely, decreasing membrane potential (hyperpolarization by potassium channel openers) evokes a decrease in fluorescence.
Confluent guinea-pig urinary bladder cells cultured in black clear-bottomed 96-well plates were rinsed twice with […] assay buffer (composition, mM: HEPES, 20; NaCl, 120; KCl, 2; CaCl2, 2; MgCl2, 1; glucose, 5; pH 7.4 at 25° C.) containing 5 μM DiBAC(4)3 and incubated with […] of the buffer in a cell incubator for 30 minutes at 37° C. to ensure dye distribution across the membrane. After recording the baseline fluorescence for 5 minutes, the reference or test compounds, prepared at 10 times the concentration in the assay buffer, were added directly to the wells. Changes in fluorescence were monitored for an additional 25 minutes. Hyperpolarization responses were corrected for any background noise and were normalized to the response observed with 10 μM of the reference compound P1075 (assigned as 100%), a potent opener of smooth muscle KATP channels (Quast et al., Mol. Pharmacol., v. 43 pp. 474-481 (1993)), hereby incorporated by reference.
Routinely, five concentrations of P1075 or test compounds (log or half-log dilutions) were evaluated and the maximal steady-state hyperpolarization values (expressed as % relative to P1075) plotted as a function of concentration. […]

Consider `Cc1ccc(C(=O)NC(NC(=S)Nc2ccc(F)cc2F)C(F)(F)F)cc1` (stereo not shown) [Example 15, N-(1-{[(2,4-difluoroanilino)carbothioyl]amino}-2,2,2-trifluoroethyl)-4-methylbenzamide], for which, in experiment [1], the Index is reported as 0.005; the EC50 is 28 µM; the Emax (as a rule, the size of the effect at its maximum, as opposed to the concentration needed) stood at 97%. In experiment [2], this molecule displayed an EC50 of 0.55 µM and an Emax of 70%.

For the molecule `Cc1ccc(C(=O)NC(NC(=S)Nc2c(F)cccc2F)C(F)(F)F)cc1` (stereo not shown) [Example 17, N-(1-{[(2,6-difluoroanilino)carbothioyl]amino}-2,2,2-trifluoroethyl)-4-methylbenzamide], in experiment [1], the Index is recorded as 0.006, the EC50 came out at 12 µM and the Emax amounted to 100%. Moreover, in experiment [2], the EC50 was 0.09 µM and the Emax was found to be 109%.

As for `Cc1ccc(C(=O)NC(NC(=S)Nc2cccc(F)c2F)C(F)(F)F)cc1` (stereo not shown) [Example 18, N-(1-{[(2,3-difluoroanilino)carbothioyl]amino}-2,2,2-trifluoroethyl)-4-methylbenzamide], in experiment [1], the Index amounted to 0.020, the EC50 turned out to be 8 µM and the Emax amounted to 97%. In experiment [2], this molecule gave an EC50 of 0.09 µM and an Emax of 123%.

As for `O=C(NC(NC(=S)Nc1ccccc1)C(F)(F)F)c1ccc(Cl)cc1` (stereo not shown) [Example 20, N-{1-[(anilinocarbothioyl)amino]-2,2,2-trifluoroethyl}-4-chlorobenzamide], in experiment [1], the Index amounted to 0.011, the EC50 came to 28 µM and the Emax is 84%. Moreover, in experiment [2], the EC50 was 0.09 µM and the Emax is 85%.

Take `O=C(NC(NC(=S)Nc1ccccc1F)C(F)(F)F)c1ccc(Cl)cc1` (stereo not shown) [Example 21, 4-chloro-N-(2,2,2-trifluoro-1-{[(2-fluoroanilino)carbothioyl]amino}ethyl)benzamide]: in experiment [1], the Index is 0.014, the EC50 came to 21 µM and the Emax is 86%. In experiment [2], this molecule gave an EC50 of 0.09 µM and an Emax of 96%.

Turning to `Cc1ccc(C(=O)NC(NC(=S)Nc2cccnc2)C(C)(C)C)cc1` (stereo not shown) [Example 22, N-(2,2-dimethyl-1-{[(3-pyridinylamino)carbothioyl]amino}propyl)-4-methylbenzamide], in experiment [1], the Index is on record as 0.017, the EC50 worked out at 5 µM and the Emax worked out at 100%. In experiment [2], this molecule gave an EC50 of 0.22 µM and an Emax of 100%.

Take `Cc1ccc(C(=O)N[C@H](NC(=S)Nc2cccnc2)C(C)(C)C)cc1` [Example 23, N-((1R)-2,2-dimethyl-1-{[(3-pyridinylamino)carbothioyl]amino}propyl)-4-methylbenzamide]: in experiment [1], the Index was 0.009, the EC50 was found to be 16 µM and the Emax is 100%. Also, in experiment [2], the EC50 was found to be 3.96 µM and the Emax amounted to 66%.

Turning to `Cc1ccc(C(=O)N[C@@H](NC(=S)Nc2cccnc2)C(C)(C)C)cc1` [Example 24, N-((1S)-2,2-dimethyl-1-{[(3-pyridinylamino)carbothioyl]amino}propyl)-4-methylbenzamide], in experiment [1], the Index was found to be 0.007, the EC50 stood at 17 µM and the Emax was 100%. Moreover, in experiment [2], the EC50 was 0.08 µM and the Emax was 93%.

In the case of `Cc1ccc(C(=O)NC(NC(=S)Nc2cccc([N+](=O)[O-])c2)C(C)(C)C)cc1` (stereo not shown) [Example 25, N-(2,2-dimethyl-1-{[(3-nitroanilino)carbothioyl]amino}propyl)-4-methylbenzamide], in experiment [1], the Index is listed as 0.078, the EC50 came to 1 µM and the Emax amounted to 100%. In experiment [2], this molecule registered an EC50 of 0.07 µM and an Emax of 103%.

On to `CC(C)(C)C(NC(=O)c1ccc(Cl)cc1)NC(=S)Nc1cccnc1` (stereo not shown) [Example 27, 4-chloro-N-(2,2-dimethyl-1-{[(3-pyridinylamino)carbothioyl]amino}propyl)benzamide], for which, in experiment [1], the Index came to 0.009, the EC50 stood at 25 µM and the maximum response (Emax) came to 94%. In experiment [2], this molecule came in with an EC50 of 0.1 µM and an Emax of 80%.

Turning to `CC(C)(C)C(NC(=O)c1ccccc1)NC(=S)Nc1cccnc1` (stereo not shown) [Example 28, N-(2,2-dimethyl-1-{[(3-pyridinylamino)carbothioyl]amino}propyl)benzamide], in experiment [1], the Index was found to be 0.004, the EC50 is 42 µM and the Emax was 100%. In experiment [2], this molecule registered an EC50 of 0.5 µM and a maximum response (Emax) of 77%.

`Cc1ccc(C(=O)NC(NC(=S)Nc2cccc([N+](=O)[O-])c2)c2ccccc2)cc1` (stereo not shown) [Example 33, 4-methyl-N-[{[(3-nitroanilino)carbothioyl]amino}(phenyl)methyl]benzamide]: in experiment [1], the Index came out at 0.027, the EC50 is 12 µM and the Emax was 80%. In experiment [2], this molecule displayed an EC50 of 0.22 µM and an Emax of 102%.

Turning to `Cc1ccc(C(=O)NC(NC(=S)Nc2cccnc2)c2ccccc2)cc1` (stereo not shown) [Example 34, 4-methyl-N-(phenyl{[(3-pyridinylamino)carbothioyl]amino}methyl)benzamide], in experiment [1], the Index is given as 0.003, the EC50 came to 23 µM and the Emax came to 99%. For the same molecule, in experiment [2], the EC50 came out at 0.5 µM and the Emax worked out at 80%.

On to `Cc1ccc(C(=O)NC(NC(=O)Nc2cccnc2)C(Cl)(Cl)Cl)cc1` (stereo not shown) [Example 38, 4-methyl-N-(2,2,2-trichloro-1-{[(3-pyridinylamino)carbonyl]amino}ethyl)benzamide], for which, in experiment [1], the Index turned out to be 0.015, the EC50 turned out to be 7 µM and the maximum response (Emax) came to 98%. For the same molecule, in experiment [2], the EC50 was 0.1 µM and the Emax came out at 100%.

Consider `O=C(Nc1cccnc1)NC(NC(=O)c1ccccc1)C(Cl)(Cl)Cl` (stereo not shown) [Example 40, N-(2,2,2-trichloro-1-{[(3-pyridinylamino)carbonyl]amino}ethyl)benzamide], for which, in experiment [1], the Index was determined as 0.007, the EC50 was found to be 15 µM and the maximum response (Emax) was determined as 100%. Moreover, in experiment [2], the EC50 was determined as 0.12 µM and the Emax was 100%.

In the case of `Cc1ccc(C(=O)NC(NC(=NC#N)Nc2cccnc2)C(Cl)(Cl)Cl)cc1` (stereo not shown) [Example 44, 4-methyl-N-(2,2,2-trichloro-1-{[(cyanoimino)(3-pyridinylamino)methyl]amino}ethyl)benzamide], in experiment [1], the Index worked out at 0.040, the EC50 came out at 2 µM and the Emax was found to be 95%. Moreover, in experiment [2], the EC50 was determined as 0.04 µM and the maximum response (Emax) stood at 103%.

In the case of `Cc1ccc(C(=O)NC(NC(=NC#N)Nc2ccccc2F)C(Cl)(Cl)Cl)cc1` (stereo not shown) [Example 47, 4-methyl-N-(2,2,2-trichloro-1-{[(cyanoimino)(2-fluoroanilino)methyl]amino}ethyl)benzamide], in experiment [1], the Index was 0.019, the EC50 is 36 µM and the maximal effect (Emax) stood at 67%. In experiment [2], the EC50 was 0.06 µM and the Emax was found to be 98%.
